Test: xn = mol fraction of the nth substance listed
Details: Gas, Oscillating disk viscometry

FC(F)C(F)(F)F [pentafluoroethane] + CCC
Details	viscosity [mPa·s]
298.15 K, 101.2 kPa, x1 = 0.7503	0.01219
298.15 K, 102 kPa, x1 = 0.5011	0.01122
298.15 K, 197.9 kPa, x1 = 0.7503	0.01223
298.15 K, 198.2 kPa, x1 = 0.5011	0.01121
298.15 K, 294.6 kPa, x1 = 0.7503	0.01221
298.15 K, 302.6 kPa, x1 = 0.5011	0.01121
298.15 K, 391.5 kPa, x1 = 0.7503	0.01222
298.15 K, 396.1 kPa, x1 = 0.5011	0.01123
298.15 K, 492.3 kPa, x1 = 0.7503	0.01223
298.15 K, 499.4 kPa, x1 = 0.5011	0.01123
298.15 K, 589.1 kPa, x1 = 0.7503	0.01225
298.15 K, 591.1 kPa, x1 = 0.5011	0.01124
298.15 K, 687.4 kPa, x1 = 0.5011	0.01125
298.15 K, 689 kPa, x1 = 0.7503	0.01229
298.15 K, 789 kPa, x1 = 0.5011	0.01128
298.15 K, 803.5 kPa, x1 = 0.7503	0.01229
298.15 K, 913.4 kPa, x1 = 0.7503	0.01235
298.15 K, 928.2 kPa, x1 = 0.5011	0.01131
298.15 K, 1012.4 kPa, x1 = 0.7503	0.01248
298.15 K, 1025.1 kPa, x1 = 0.5011	0.01138
298.15 K, 1231.3 kPa, x1 = 0.7503	0.01257
323.15 K, 101.8 kPa, x1 = 0.5011	0.01214
323.15 K, 102.2 kPa, x1 = 0.7503	0.01319
323.15 K, 199 kPa, x1 = 0.7503	0.01317
323.15 K, 213.9 kPa, x1 = 0.5011	0.01213
323.15 K, 294.9 kPa, x1 = 0.7503	0.0132
323.15 K, 391.1 kPa, x1 = 0.7503	0.01321
323.15 K, 395.8 kPa, x1 = 0.5011	0.01215
323.15 K, 519.4 kPa, x1 = 0.7503	0.01322
323.15 K, 592.8 kPa, x1 = 0.5011	0.01219
323.15 K, 636.3 kPa, x1 = 0.7503	0.01325
323.15 K, 766.4 kPa, x1 = 0.7503	0.01326
323.15 K, 788.9 kPa, x1 = 0.5011	0.01225
323.15 K, 883.2 kPa, x1 = 0.7503	0.01334
323.15 K, 983.8 kPa, x1 = 0.5011	0.01228
323.15 K, 1005.1 kPa, x1 = 0.7503	0.01339
323.15 K, 1125.1 kPa, x1 = 0.7503	0.01346
323.15 K, 1181.8 kPa, x1 = 0.5011	0.01241
323.15 K, 1249.7 kPa, x1 = 0.7503	0.01351
323.15 K, 1371.2 kPa, x1 = 0.7503	0.01361
323.15 K, 1374.9 kPa, x1 = 0.5011	0.01255
323.15 K, 1486.3 kPa, x1 = 0.7503	0.01367
323.15 K, 1618.9 kPa, x1 = 0.7503	0.01379
323.15 K, 1667.7 kPa, x1 = 0.5011	0.01272
323.15 K, 1736.1 kPa, x1 = 0.7503	0.01387
323.15 K, 1862.6 kPa, x1 = 0.5011	0.01289
323.15 K, 1864.4 kPa, x1 = 0.7503	0.01404
323.15 K, 1985.7 kPa, x1 = 0.5011	0.013
323.15 K, 1992.1 kPa, x1 = 0.7503	0.0142
323.15 K, 2071.4 kPa, x1 = 0.5011	0.01314
323.15 K, 2101.6 kPa, x1 = 0.7503	0.01435
323.15 K, 2211.6 kPa, x1 = 0.7503	0.01452
323.15 K, 2349.2 kPa, x1 = 0.7503	0.01482
348.15 K, 101.1 kPa, x1 = 0.5011	0.01295
348.15 K, 101.4 kPa, x1 = 0.7503	0.01409
348.15 K, 198.4 kPa, x1 = 0.5011	0.01299
348.15 K, 199.7 kPa, x1 = 0.7503	0.01407
348.15 K, 305.5 kPa, x1 = 0.5011	0.01297
348.15 K, 388.2 kPa, x1 = 0.7503	0.01416
348.15 K, 401.6 kPa, x1 = 0.5011	0.01296
348.15 K, 588.6 kPa, x1 = 0.7503	0.01424
348.15 K, 592.5 kPa, x1 = 0.5011	0.01307
348.15 K, 750.8 kPa, x1 = 0.7503	0.01427
348.15 K, 784.8 kPa, x1 = 0.5011	0.01316
348.15 K, 978.4 kPa, x1 = 0.7503	0.01432
348.15 K, 986 kPa, x1 = 0.5011	0.01318
348.15 K, 1173.8 kPa, x1 = 0.7503	0.01443
348.15 K, 1178.4 kPa, x1 = 0.5011	0.01326
348.15 K, 1374.6 kPa, x1 = 0.5011	0.01335
348.15 K, 1374.7 kPa, x1 = 0.7503	0.01455
348.15 K, 1565.7 kPa, x1 = 0.7503	0.01468
348.15 K, 1571.2 kPa, x1 = 0.5011	0.0135
348.15 K, 1770.2 kPa, x1 = 0.7503	0.01482
348.15 K, 1772.3 kPa, x1 = 0.5011	0.01362
348.15 K, 1960.9 kPa, x1 = 0.5011	0.01374
348.15 K, 1963.9 kPa, x1 = 0.7503	0.01499
348.15 K, 2130.4 kPa, x1 = 0.7503	0.01511
348.15 K, 2139.9 kPa, x1 = 0.5011	0.01387
348.15 K, 2297.9 kPa, x1 = 0.5011	0.01404
348.15 K, 2335.5 kPa, x1 = 0.7503	0.01538
348.15 K, 2492.4 kPa, x1 = 0.7503	0.01555
348.15 K, 2501 kPa, x1 = 0.5011	0.0143
348.15 K, 2660.6 kPa, x1 = 0.7503	0.01583
348.15 K, 2695.6 kPa, x1 = 0.5011	0.01451
348.15 K, 2804.7 kPa, x1 = 0.7503	0.01604
348.15 K, 2928.8 kPa, x1 = 0.7503	0.01629
348.15 K, 2932.5 kPa, x1 = 0.5011	0.01494
348.15 K, 3079.4 kPa, x1 = 0.7503	0.01666
348.15 K, 3111.7 kPa, x1 = 0.5011	0.01524
348.15 K, 3230.6 kPa, x1 = 0.7503	0.01697
348.15 K, 3383.2 kPa, x1 = 0.7503	0.01739
373.15 K, 101 kPa, x1 = 0.7503	0.01505
373.15 K, 101.5 kPa, x1 = 0.5011	0.01376
373.15 K, 220 kPa, x1 = 0.7503	0.01506
373.15 K, 225.5 kPa, x1 = 0.5011	0.01381
373.15 K, 389.7 kPa, x1 = 0.7503	0.0151
373.15 K, 397.7 kPa, x1 = 0.5011	0.01383
373.15 K, 585.6 kPa, x1 = 0.5011	0.01386
373.15 K, 637.7 kPa, x1 = 0.7503	0.01515
373.15 K, 781.4 kPa, x1 = 0.5011	0.01393
373.15 K, 877.8 kPa, x1 = 0.7503	0.01525
373.15 K, 980.5 kPa, x1 = 0.5011	0.01401
373.15 K, 1141.8 kPa, x1 = 0.7503	0.01537
373.15 K, 1174.2 kPa, x1 = 0.5011	0.01407
373.15 K, 1370.5 kPa, x1 = 0.5011	0.01413
373.15 K, 1477.4 kPa, x1 = 0.7503	0.01552
373.15 K, 1560.4 kPa, x1 = 0.5011	0.01422
373.15 K, 1717 kPa, x1 = 0.7503	0.01566
373.15 K, 1753.9 kPa, x1 = 0.5011	0.01434
373.15 K, 1949.4 kPa, x1 = 0.5011	0.01447
373.15 K, 1961.1 kPa, x1 = 0.7503	0.01583
373.15 K, 2125.3 kPa, x1 = 0.5011	0.01458
373.15 K, 2185.2 kPa, x1 = 0.7503	0.01605
373.15 K, 2318.9 kPa, x1 = 0.5011	0.01469
373.15 K, 2415.9 kPa, x1 = 0.7503	0.01623
373.15 K, 2508.1 kPa, x1 = 0.5011	0.01487
373.15 K, 2631.2 kPa, x1 = 0.7503	0.01641
373.15 K, 2708.4 kPa, x1 = 0.5011	0.01508
373.15 K, 2950.3 kPa, x1 = 0.7503	0.01679
373.15 K, 2961.4 kPa, x1 = 0.5011	0.01536
373.15 K, 3209.9 kPa, x1 = 0.7503	0.01714
373.15 K, 3217 kPa, x1 = 0.5011	0.01568
373.15 K, 3421.2 kPa, x1 = 0.7503	0.01749

Reference: the NIST ThermoML archive (doi:10.1007/s10765-006-0051-4)
